From patent US9056069B2, “Cancer therapy based on tumor associated antigens derived from cyclin D1” (IMMATICS BIOTECHNOLOGIES GMBH, priority 2010, dated 2015)
Entries after “also recorded” stand apart in the source; their conditions may differ.

What was measured:
mRCC = type: in vivo, human
Source text: Some patients received a prior TKI therapy with sunitinib or sorafenib, others a prior cytokine therapy with interferon or interleukin.
Both patient groups were followed up for progression-free survival (PFS) and overall survival (OS).

[1] = tested on: HLA-A*02 positive tumor cells endogenously expressing Cyclin D1; settings: allo-restricted T cells of HLA-A2-negative donors; cited from earlier work
CTL = settings: healthy donors, colon cancer and mantle cell lymphoma patients; autologous CD40-activated B cells as APCs; cited from earlier work
HLA class-II = assay: Binding to HLA class-II; design: species or system human

## LLGATCMFV (listed as Homo sapiens) [CCN-001, cyclin D1-derived peptide, aa 101-109]
mRCC; all vaccinated patients
  survival of patients responding against CCN-001 versus non-CCN-001-responding patients: significant longer survival; also recorded: survive significantly longer
mRCC; patient group pretreated with cyclophosphamide
  favorable effect of T cell response against CCN-001 on survival: even more evident
[1]
  lysis of tumor cells by T cell clones recognizing the peptide: could lyse HLA-A*02 positive tumor cells endogenously expressing Cyclin D1
CTL
  generation of epitope-specific CTL: could be generated from HLA-A2+ donors

## O=P1(N(CCCl)CCCl)NCCCO1 (stereo not shown) [cyclophosphamide]
mRCC; cyclophosphamide 300 mg/m2 single infusion before vaccination
  effect of prior low-dose cyclophosphamide treatment on outcome of vaccine treatment: further significantly improved the outcome

## NPPSMVAAGSVVAAV (listed as Homo sapiens) [CCN-003, cyclin D1-derived peptide, aa 198-212]
HLA class-II
  HLA restriction: appears DRB1*0401 restricted
  binding to HLA class-II: binds to HLA class-II
